Measured values: ChEMBL document CHEMBL1275576, “In vitro activity of tomopenem (CS-023/RO4908463) against anaerobic bacteria” (Antimicrob Agents Chemother, 2009)

What was measured:
[1] = tested on: Bacteroides fragilis; assay: Antimicrobial activity against carbapenemase-producing Bacteroides fragilis GAI 30144 by agar dilution method in presence of 5% laked sheep blood; type: functional
[2] = Antimicrobial activity against Parabacteroides distasonis ATCC 8503 by agar dilution method in presence of 5% laked sheep blood; type: functional
[3] = tested on: Campylobacter ureolyticus; assay: Antimicrobial activity against Bacteroides ureolyticus NCTC 10941 by agar dilution method in presence of 5% laked sheep blood; type: functional
[4] = tested on: Prevotella corporis; assay: Antimicrobial activity against Prevotella corporis GAI 91000 by agar dilution method in presence of 5% laked sheep blood; type: functional
[5] = tested on: Bacteroides heparinolyticus; assay: Antimicrobial activity against Prevotella heparinolytica ATCC 35895 by agar dilution method in presence of 5% laked sheep blood; type: functional
[6] = tested on: Prevotella intermedia; assay: Antimicrobial activity against Prevotella intermedia ATCC 25611 by agar dilution method in presence of 5% laked sheep blood; type: functional
[7] = tested on: Prevotella denticola; assay: Antimicrobial activity against Prevotella denticola GAI 5490 by agar dilution method in presence of 5% laked sheep blood; type: functional
[8] = tested on: Hoylesella oralis; assay: Antimicrobial activity against Prevotella oralis ATCC 33269 by agar dilution method in presence of 5% laked sheep blood; type: functional
[9] = tested on: Fusobacterium varium; assay: Antimicrobial activity against Fusobacterium varium ATCC 8501 by agar dilution method in presence of 5% laked sheep blood; type: functional
[10] = tested on: Bilophila wadsworthia; assay: Antimicrobial activity against Bilophila wadsworthia WAL 7959 by agar dilution method in presence of 5% laked sheep blood; type: functional
[11] = tested on: Desulfovibrio desulfuricans; assay: Antimicrobial activity against Desulfovibrio desulfuricans ATCC 29577 by agar dilution method in presence of 5% laked sheep blood; type: functional
[12] = Antimicrobial activity against Desulfovibrio piger DSM 749 by agar dilution method in presence of 5% laked sheep blood; type: functional, Desulfovibrio piger ATCC 29098
[13] = tested on: Peptostreptococcus anaerobius; assay: Antimicrobial activity against Peptostreptococcus anaerobius ATCC 27337 by agar dilution method in presence of 5% laked sheep blood; type: functional
[14] = tested on: Clostridium septicum; assay: Antimicrobial activity against Clostridium septicum ATCC 12464 by agar dilution method in presence of 5% laked sheep blood; type: functional
[15] = tested on: Cutibacterium acnes; assay: Antimicrobial activity against Propionibacterium acnes ATCC 11828 by agar dilution method in presence of 5% laked sheep blood; type: functional
[16] = tested on: Propionibacterium granulosum; assay: Antimicrobial activity against Propionibacterium granulosum ATCC 25564 by agar dilution method in presence of 5% laked sheep blood; type: functional; details: Cutibacterium granulosum
[17] = tested on: Lactobacillus acidophilus; assay: Antimicrobial activity against Lactobacillus acidophilus JCM 1132 by agar dilution method in presence of 5% laked sheep blood; type: functional
[18] = tested on: Lacticaseibacillus casei; assay: Antimicrobial activity against Lactobacillus casei subsp. casei JCM 1134 by agar dilution method in presence of 5% laked sheep blood; type: functional
[19] = tested on: Bacteroides fragilis; assay: Antimicrobial activity against Bacteroides fragilis ATCC 25285 by agar dilution method in presence of 5% laked sheep blood; type: functional; details: NCTC 9343
[20] = tested on: Bacteroides fragilis; assay: Antimicrobial activity against Bacteroides fragilis NCTC 10581 by agar dilution method in presence of 5% laked sheep blood; type: functional
[21] = tested on: Bacteroides fragilis; assay: Antimicrobial activity against Bacteroides fragilis GAI 7955 by agar dilution method in presence of 5% laked sheep blood; type: functional
[22] = tested on: Prevotella melaninogenica; assay: Antimicrobial activity against Prevotella melaninogenica JCM 6325 by agar dilution method in presence of 5% laked sheep blood; type: functional; details: ATCC 25845
[23] = tested on: Fusobacterium nucleatum; assay: Antimicrobial activity against Fusobacterium nucleatum ATCC 25586 by agar dilution method in presence of 5% laked sheep blood; type: functional
[24] = tested on: Bacteroides fragilis; assay: Antimicrobial activity against Bacteroides fragilis by agar dilution method in presence of 5% laked sheep blood; type: functional
[25] = tested on: Bacteroides thetaiotaomicron; assay: Antimicrobial activity against Bacteroides thetaiotaomicron by agar dilution method in presence of 5% laked sheep blood; type: functional
[26] = tested on: Parabacteroides distasonis; assay: Antimicrobial activity against Parabacteroides distasonis by agar dilution method in presence of 5% laked sheep blood; type: functional
[27] = tested on: Bacteroides uniformis; assay: Antimicrobial activity against Bacteroides uniformis by agar dilution method in presence of 5% laked sheep blood; type: functional
[28] = tested on: Phocaeicola vulgatus; assay: Antimicrobial activity against Bacteroides vulgatus by agar dilution method in presence of 5% laked sheep blood; type: functional
[29] = tested on: Bacteroides stercoris; assay: Antimicrobial activity against Bacteroides stercoris by agar dilution method in presence of 5% laked sheep blood; type: functional
[30] = tested on: Odoribacter splanchnicus; assay: Antimicrobial activity against Odoribacter splanchnicus by agar dilution method in presence of 5% laked sheep blood; type: functional
[31] = tested on: Prevotella sp.; assay: Antimicrobial activity against Prevotella sp. by agar dilution method in presence of 5% laked sheep blood; type: functional
[32] = tested on: Prevotella melaninogenica; assay: Antimicrobial activity against Prevotella melaninogenica by agar dilution method in presence of 5% laked sheep blood; type: functional
[33] = tested on: Fusobacterium nucleatum; assay: Antimicrobial activity against Fusobacterium nucleatum by agar dilution method in presence of 5% laked sheep blood; type: functional
[34] = tested on: Fusobacterium varium; assay: Antimicrobial activity against Fusobacterium varium by agar dilution method in presence of 5% laked sheep blood; type: functional
[35] = tested on: Fusobacterium mortiferum; assay: Antimicrobial activity against Fusobacterium mortiferum by agar dilution method in presence of 5% laked sheep blood; type: functional
[36] = tested on: Fusobacterium sp.; assay: Antimicrobial activity against Fusobacterium sp. by agar dilution method in presence of 5% laked sheep blood; type: functional
[37] = tested on: Finegoldia magna; assay: Antimicrobial activity against Finegoldia magna by agar dilution method in presence of 5% laked sheep blood; type: functional
[38] = tested on: Parvimonas micra; assay: Antimicrobial activity against Parvimonas micra by agar dilution method in presence of 5% laked sheep blood; type: functional
[39] = tested on: Peptostreptococcus anaerobius; assay: Antimicrobial activity against Peptostreptococcus anaerobius by agar dilution method in presence of 5% laked sheep blood; type: functional
[40] = tested on: Peptoniphilus asaccharolyticus; assay: Antimicrobial activity against Peptoniphilus asaccharolyticus by agar dilution method in presence of 5% laked sheep blood; type: functional
[41] = tested on: Eggerthella lenta; assay: Antimicrobial activity against Eggerthella lenta by agar dilution method in presence of 5% laked sheep blood; type: functional
[42] = tested on: Eubacterium limosum; assay: Antimicrobial activity against Eubacterium limosum by agar dilution method in presence of 5% laked sheep blood; type: functional
[43] = tested on: Clostridioides difficile; assay: Antimicrobial activity against Clostridium difficile by agar dilution method in presence of 5% laked sheep blood; type: functional
[44] = tested on: Clostridium perfringens; assay: Antimicrobial activity against Clostridium perfringens by agar dilution method in presence of 5% laked sheep blood; type: functional
[45] = tested on: Clostridium perfringens; assay: Antimicrobial activity against Clostridium perfringens ATCC 13124 by agar dilution method in presence of 5% laked sheep blood; type: functional

With CCC[C@@H]1C[C@@H](C(=O)N[C@@H]([C@H]2O[C@H](SC)[C@H](O)[C@@H](O)[C@H]2O)[C@H](C)Cl)N(C)C1 [CLINDAMYCIN] the MIC [1] was 2 µg/mL, the MIC [2] was 0.06 µg/mL and the MIC [3] was 0.25 µg/mL. For the same compound, the MIC [4] was no more than 0.03 µg/mL, the MIC [5] was no more than 0.03 µg/mL and the MIC [6] was no more than 0.03 µg/mL. For the same compound, the MIC [7] was no more than 0.03 µg/mL, the MIC [8] was no more than 0.03 µg/mL and the MIC [9] was 4 µg/mL. The MIC [10] was 0.5 µg/mL, the MIC [11] was 0.5 µg/mL and the MIC [12] was 0.06 µg/mL. For the same compound, the MIC [13] was 0.25 µg/mL, the MIC [14] was no more than 0.03 µg/mL and the MIC [15] was 0.125 µg/mL. It also gave an MIC [16] of no more than 0.03 µg/mL, an MIC [17] of 1 µg/mL and an MIC [18] of 2 µg/mL. It also gave an MIC [19] of 1 µg/mL, an MIC [20] of no more than 0.03 µg/mL and an MIC [21] of 1 µg/mL.
CC(=N)N1CC[C@H](SC2=C(C(=O)O)N3C(=O)[C@H]([C@@H](C)O)[C@H]3C2)C1 showed an MIC [1] greater than 128 µg/mL, an MIC [2] of 1 µg/mL and an MIC [3] of 0.25 µg/mL. For the same compound, the MIC [4] was 0.125 µg/mL, the MIC [5] was 0.125 µg/mL and the MIC [6] was 0.06 µg/mL. For the same compound, the MIC [22] was 0.06 µg/mL, the MIC [7] was 0.06 µg/mL and the MIC [8] was 0.06 µg/mL. For the same compound, the MIC [23] was 1 µg/mL, the MIC [9] was 4 µg/mL and the MIC [10] was 0.5 µg/mL. It also gave an MIC [11] of 0.5 µg/mL, an MIC [12] of 0.125 µg/mL and an MIC50 [24] of 0.25 µg/mL. The MIC90 [24] was 8 µg/mL, the MIC50 [25] was 0.5 µg/mL and the MIC90 [25] was 2 µg/mL. It also gave an MIC50 [26] of 1 µg/mL, an MIC90 [26] of 4 µg/mL and an MIC50 [27] of 1 µg/mL. The MIC90 [27] was 4 µg/mL, the MIC50 [28] was 1 µg/mL and the MIC90 [28] was 4 µg/mL. For the same compound, the MIC50 [29] was 1 µg/mL, the MIC90 [29] was 4 µg/mL and the MIC50 [30] was 1 µg/mL. For the same compound, the MIC90 [30] was 4 µg/mL, the MIC50 [31] was 0.125 µg/mL and the MIC90 [31] was 0.25 µg/mL. It also gave an MIC50 [32] of 0.125 µg/mL, an MIC90 [32] of 0.25 µg/mL and an MIC50 [33] of 0.125 µg/mL. For the same compound, the MIC90 [33] was 2 µg/mL, the MIC50 [34] was 0.125 µg/mL and the MIC90 [34] was 2 µg/mL. It also gave an MIC50 [35] of 0.125 µg/mL, an MIC90 [35] of 2 µg/mL and an MIC50 [36] of 0.125 µg/mL. The MIC90 [36] was 2 µg/mL, the MIC50 [37] was 0.25 µg/mL and the MIC90 [37] was 0.5 µg/mL. For the same compound, the MIC50 [38] was 0.125 µg/mL, the MIC90 [38] was 0.125 µg/mL and the MIC50 [39] was 0.125 µg/mL. The MIC90 [39] was 1 µg/mL, the MIC50 [40] was 0.03 µg/mL and the MIC90 [40] was 0.06 µg/mL. It also gave an MIC50 [41] of 1 µg/mL, an MIC90 [41] of 2 µg/mL and an MIC50 [42] of 1 µg/mL. It also gave an MIC90 [42] of 2 µg/mL, an MIC50 [43] of 4 µg/mL and an MIC90 [43] of 8 µg/mL. It also gave an MIC50 [44] of 0.03 µg/mL, an MIC90 [44] of 0.06 µg/mL and an MIC [13] of 0.125 µg/mL. The MIC [45] was 0.03 µg/mL, the MIC [14] was no more than 0.015 µg/mL and the MIC [15] was 0.125 µg/mL. It also gave an MIC [16] of 0.125 µg/mL, an MIC [17] of 0.25 µg/mL and an MIC [18] of 0.5 µg/mL. The MIC [19] was 0.25 µg/mL, the MIC [20] was 0.25 µg/mL and the MIC [21] was 4 µg/mL.
